Data: patent US11076594B2, “Pyrazolone compound or salt thereof, preparation method therefor, herbicide composition and use thereof” (QINGDAO KINGAGROOT CHEMICAL COMPOUNDS CO., LTD., priority 2015, dated 2021)

How the values were obtained:
Format in all cases: in vivo
[1] = system: wheat; assay: wheat field test, crop selectivity, greenhouse spray at 4 leaf stage; conditions: 250 g/ha of the active substance; 4 weeks after treatment
Procedure, shortened: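 Compounds in acetone were mixed with methyl oleate emulsion, diluted with water and applied with a sprayer to greenhouse plants at the 4 leaf stage. Growth control, expressed as fresh weight control rate, was assessed after 4 weeks of further culture.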

[2] = system: rice; assay: post-emergence stage experiment, crop (Table 1); conditions: post-emergence spray at 4-5 leaf stage, 250 g/ha active ingredient with 450 kg/ha water, rated after 3 weeks in greenhouse
Procedure, shortened: (§1)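 Greenhouse pot test; foliar spray at 4-5 leaf stage; acetone + Tween 80 + water formulation; 3 wk post-treatment fresh-weight control rate.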

[3] = system: flixweed; assay: wheat field resistant broadleaf weed control, greenhouse spray at 4 leaf stage; set-up: key: Level 10: completely dead; Level 9: above 95% growth control rate; Level 8: above 90% growth control rate; Level 7: above 80% growth control rate; Level 6: above 70% growth control rate; Level 5: above 60% growth control rate; Level 4: above 50% growth control rate; Level 3: above 20% growth control rate; Level 2: 5%-20% growth control rate; Level 1: below 5% growth control rate; conditions: 250 g/ha of the active substance; 4 weeks after treatment; ALS inhibitor resistant
Procedure: (§2) The activity level standard of harmful plant destruction (i.e. growth control rate) is as follows:
(§3) The above described growth control rate is fresh weight control rate.
(§4) The seeds of alopecurus japonicas, flixweed, shepherd's purse, corn gromwell, chickweed, beckmannia syzigachne, and annual ryegrass and wheat seeds were put into a plastic pot loaded with soil, and then covered with 0.5-2 cm soil, the seeds were allowed to grow in good greenhouse environment. The test plants were treated at 4 leaf stage 2-3 weeks after sowing. The test compounds of the present invention were dissolved in acetone respectively, then added with methyl oleate emulsion and diluted by certain amount of water to certain concentration. The solution was sprayed to the plant with a sprayer. Then the plants were cultured for 4 weeks in greenhouse.

[4] = system: chickweed; assay: as above; set-up: key: Level 10: completely dead; Level 9: above 95% growth control rate; Level 8: above 90% growth control rate; Level 7: above 80% growth control rate; Level 6: above 70% growth control rate; Level 5: above 60% growth control rate; Level 4: above 50% growth control rate; Level 3: above 20% growth control rate; Level 2: 5%-20% growth control rate; Level 1: below 5% growth control rate; conditions: 250 g/ha of the active substance; 4 weeks after treatment; ALS inhibitor resistant
Procedure: as §2, §3, §4

[5] = system: shepherd's purse; assay: as above; set-up: key: Level 10: completely dead; Level 9: above 95% growth control rate; Level 8: above 90% growth control rate; Level 7: above 80% growth control rate; Level 6: above 70% growth control rate; Level 5: above 60% growth control rate; Level 4: above 50% growth control rate; Level 3: above 20% growth control rate; Level 2: 5%-20% growth control rate; Level 1: below 5% growth control rate; conditions: 250 g/ha of the active substance; 4 weeks after treatment; ALS inhibitor resistant
Procedure: as §2, §3, §4

[6] = system: corn gromwell; assay: as above; set-up: key: Level 10: completely dead; Level 9: above 95% growth control rate; Level 8: above 90% growth control rate; Level 7: above 80% growth control rate; Level 6: above 70% growth control rate; Level 5: above 60% growth control rate; Level 4: above 50% growth control rate; Level 3: above 20% growth control rate; Level 2: 5%-20% growth control rate; Level 1: below 5% growth control rate; conditions: 250 g/ha of the active substance; 4 weeks after treatment; ALS inhibitor resistant
Procedure: as §2, §3, §4

[7] = system: bidens bipinnata; assay: weed control effect in post-emergence stage (Table 1); set-up: key: Level 10: completely dead; Level 9: above 95% growth control rate; Level 8: above 90% growth control rate; Level 7: above 80% growth control rate; Level 6: above 70% growth control rate; Level 5: above 60% growth control rate; Level 4: above 50% growth control rate; Level 3: above 20% growth control rate; Level 2: 5%-20% growth control rate; Level 1: below 5% growth control rate; conditions: post-emergence spray at 4-5 leaf stage, 250 g/ha active ingredient with 450 kg/ha water, rated after 3 weeks in greenhouse
Procedure, shortened: as §1

[8] = system: rorippa indica; assay: as above; set-up: key: Level 10: completely dead; Level 9: above 95% growth control rate; Level 8: above 90% growth control rate; Level 7: above 80% growth control rate; Level 6: above 70% growth control rate; Level 5: above 60% growth control rate; Level 4: above 50% growth control rate; Level 3: above 20% growth control rate; Level 2: 5%-20% growth control rate; Level 1: below 5% growth control rate; conditions: post-emergence spray at 4-5 leaf stage, 250 g/ha active ingredient with 450 kg/ha water, rated after 3 weeks in greenhouse
Procedure, shortened: as §1

[9] = system: foxtail; assay: as above; set-up: key: Level 10: completely dead; Level 9: above 95% growth control rate; Level 8: above 90% growth control rate; Level 7: above 80% growth control rate; Level 6: above 70% growth control rate; Level 5: above 60% growth control rate; Level 4: above 50% growth control rate; Level 3: above 20% growth control rate; Level 2: 5%-20% growth control rate; Level 1: below 5% growth control rate; conditions: post-emergence spray at 4-5 leaf stage, 250 g/ha active ingredient with 450 kg/ha water, rated after 3 weeks in greenhouse
Procedure, shortened: as §1

[10] = system: Indian mallow; assay: as above; set-up: key: Level 10: completely dead; Level 9: above 95% growth control rate; Level 8: above 90% growth control rate; Level 7: above 80% growth control rate; Level 6: above 70% growth control rate; Level 5: above 60% growth control rate; Level 4: above 50% growth control rate; Level 3: above 20% growth control rate; Level 2: 5%-20% growth control rate; Level 1: below 5% growth control rate; conditions: post-emergence spray at 4-5 leaf stage, 250 g/ha active ingredient with 450 kg/ha water, rated after 3 weeks in greenhouse
Procedure, shortened: as §1

[11] = system: crab grass; assay: as above; set-up: key: Level 10: completely dead; Level 9: above 95% growth control rate; Level 8: above 90% growth control rate; Level 7: above 80% growth control rate; Level 6: above 70% growth control rate; Level 5: above 60% growth control rate; Level 4: above 50% growth control rate; Level 3: above 20% growth control rate; Level 2: 5%-20% growth control rate; Level 1: below 5% growth control rate; conditions: post-emergence spray at 4-5 leaf stage, 250 g/ha active ingredient with 450 kg/ha water, rated after 3 weeks in greenhouse
Procedure, shortened: as §1

[12] = system: echinochloa; assay: as above; set-up: key: Level 10: completely dead; Level 9: above 95% growth control rate; Level 8: above 90% growth control rate; Level 7: above 80% growth control rate; Level 6: above 70% growth control rate; Level 5: above 60% growth control rate; Level 4: above 50% growth control rate; Level 3: above 20% growth control rate; Level 2: 5%-20% growth control rate; Level 1: below 5% growth control rate; conditions: post-emergence spray at 4-5 leaf stage, 250 g/ha active ingredient with 450 kg/ha water, rated after 3 weeks in greenhouse
Procedure, shortened: as §1

[13] = system: corn; assay: post-emergence stage experiment, crop (Table 1); conditions: post-emergence spray at 4-5 leaf stage, 250 g/ha active ingredient with 450 kg/ha water, rated after 3 weeks in greenhouse
Procedure, shortened: as §1

[14] = system: wheat; assay: post-emergence stage experiment, crop (Table 1); conditions: post-emergence spray at 4-5 leaf stage, 250 g/ha active ingredient with 450 kg/ha water, rated after 3 weeks in greenhouse
Procedure, shortened: as §1

| effect on crop, Wheat (level) [14] | Compound | Wheat (activity level, crop damage) [1] | effect on crop, Rice (level) [2] | flixweed weed controlling effect (activity level) [3] | chickweed weed controlling effect (activity level) [4] | shepherd's purse weed controlling effect (activity level) [5] | corn gromwell weed controlling effect (activity level) [6] | weed control effect, Bidens bipinnata (level) [7] | weed control effect, Rorippa indica (level) [8] | weed control effect, Green foxtail (level) [9] | weed control effect, Indian mallow (level) [10] | weed control effect, Crab grass (level) [11] | weed control effect, Echinochloa (level) [12] | effect on crop, Corn (level) [13] |
| --- | --- | --- | --- | --- | --- | --- | --- | --- | --- | --- | --- | --- | --- | --- |
| 0 | CCOc1c(C(=O)Oc2c(C(=O)c3ccc(C(F)(F)F)c(N4CCCCCC4=O)c3Cl)cnn2C)cnn1C [Compound 051] | 0 | 1 (Level 1: below 5% growth control rate) | 10 | 10 | 10 | 10 | 2 (Level 2: 5%-20% growth control rate) | 10 | 0 | 10 | 5 (Level 5: above 60% growth control rate) | 6 (Level 6: above 70% growth control rate) | 2 (Level 2: 5%-20% growth control rate) |
| 0 | Cc1nn(C)cc1C(=O)Oc1c(C(=O)c2ccc(C(F)(F)F)c(N3CCCCCC3=O)c2Cl)cnn1C [Compound 052] | 0 | 1 (Level 1: below 5% growth control rate) | 10 | 10 | 10 | 10 | 1 (Level 1: below 5% growth control rate) | 10 | 1 (Level 1: below 5% growth control rate) | 10 | 4 (Level 4: above 50% growth control rate) | 5 (Level 5: above 60% growth control rate) | 1 (Level 1: below 5% growth control rate) |
| 0 | CCOc1c(C(=O)Oc2c(C(=O)c3ccc(C(F)(F)F)c(N4CCCCCC4=O)c3Cl)c(C)nn2C)cnn1C [Compound 056] | 0 | 3 (Level 3: above 20% growth control rate) | 10 | 10 | 10 | 10 | 5 (Level 5: above 60% growth control rate) | 10 | 1 (Level 1: below 5% growth control rate) | 10 | 3 (Level 3: above 20% growth control rate) | 5 (Level 5: above 60% growth control rate) | 0 |
| 0 | Cc1nn(C)cc1C(=O)Oc1c(C(=O)c2ccc(C(F)(F)F)c(N3CCCCCC3=O)c2Cl)c(C)nn1C [Compound 058] | 0 | 2 (Level 2: 5%-20% growth control rate) | 10 | 10 | 10 | 10 | 4 (Level 4: above 50% growth control rate) | 10 | 1 (Level 1: below 5% growth control rate) | 10 | 1 (Level 1: below 5% growth control rate) | 4 (Level 4: above 50% growth control rate) | 1 (Level 1: below 5% growth control rate) |
| 0 | CCOc1c(C(=O)Oc2c(C(=O)c3ccc(C(F)(F)F)c(N4CCCCCC4=O)c3Cl)c(C3CC3)nn2C)cnn1C [Compound 060] | 0 | 1 (Level 1: below 5% growth control rate) | 10 | 10 | 10 | 10 | 7 (Level 7: above 80% growth control rate) | 10 | 1 (Level 1: below 5% growth control rate) | 10 | 3 (Level 3: above 20% growth control rate) | 5 (Level 5: above 60% growth control rate) | 0 |
| 0 | Cn1cc(C(=O)Oc2c(C(=O)c3ccc(C(F)(F)F)c(N4CCCCCC4=O)c3Cl)c(C3CC3)nn2C)cn1 [Compound 061] | 0 | 1 (Level 1: below 5% growth control rate) | 10 | 10 | 10 | 10 | 7 (Level 7: above 80% growth control rate) | 10 | 1 (Level 1: below 5% growth control rate) | 10 | 4 (Level 4: above 50% growth control rate) | 5 (Level 5: above 60% growth control rate) | 1 (Level 1: below 5% growth control rate) |
